Measured values published in patent US9765115B2, “Inhibitors of metastasis, methods of generating such inhibitors and their therapeutic applications” (Board of Supervisors of Louisiana State University acting …, priority 2011, dated 2017).
“Also recorded” adds a separate entry of the source.

Legend:
Format in all cases: cell-based
[1] = tested on: CTR-ZO-1 interaction; experiment: In situ proximity ligation assay (PLA); conditions: LNCaP cells, CT 50 nM, 30 seconds
Experimental: Fixed PC cells or tissues were immunolabeled with primary antibodies (anti-rabbit ZO-1 serum and anti-goat CTR serum) for overnight at 4° C. The secondary antibodies with attached PLA probes were supplied in the Duolink™ kit (Olink Bioscience, Uppsala, Sweden). CTR-ZO-1 interaction was observed by confocal microscopy at 400×. A red fluorescent dot indicated the two proteins are within 35 nm distance. The number of dots per cell was determined by Blobfinder™ image analysis software (Allalou et al., 2009).
Next, CTR-ZO-1 interaction was examined in PC-3CTRwt cells. […] Each dot represents an interaction between activated CTR and ZO-1, detected by in situ PLA™ using the Duolink® kit. Nuclei were stained with DAPI. The graph presents quantitative data of CTR-ZO-1 interactions in three separate but identical experiments (mean±SEM; n=6, p<0.001, paired t-test). […] Next, this phenomenon was examined in LNCaP cells, which are androgen-responsive and endogenously express CTR but not CT (Karpova et al., 2006). […] Finally, non-metastatic and metastatic PC specimens were examined in a similar experiment.
Since CTR directly interacts with ZO-1 through PDZ domain, whether CT-induced endocytosis of ZO-1 is caused by CTR-mediated events prior to or subsequent to CTR-ZO-1 interaction was tested. To determine the time course of CTR-ZO-1 interaction, in situ PLA assay was used (FIG. 15D). […] Representative micrographs are shown of CTR-ZO-1 interactions in PC-3CTRwt cells at various time periods (0-300 seconds) after CT stimulus. Each highlighted dot represents an interaction between activated CTR and ZO-1, detected by in situ PLA™ using the Duolink® kit. Nuclei were stained with DAPI. The line graph presents the mean±SEM of dots at each time point (n=6). […] Considering that ZO-1 endocytosis was observed after 1 minute of CT stimulus, it is conceivable that CTR-mediated events subsequent to CTR-ZO-1 interaction may be associated with TJ protein endocytosis.

[2] = tested on: ZO-1 and claudin 3; experiment: In vivo 32P phosphorylation and phosphoserine/phosphothreonine immunoblotting
Experimental: Postconfluent cells cultured were serum-starved overnight, and then labeled with [^32P]orthophosphate (NEN/DuPont Chemicals) in phosphate-free serum-free Dulbecco's modified Eagle's medium for 3 hours at 37° C. The cells were then treated with calcitonin (CT) (50 nM for 10 min, 37° C.). When used, myristoylated PKA-inhibitory peptide (mPKI; 100 nM) was added 15 min prior to the addition of CT (50 nM). The cells were then washed with ice-cold phosphate-buffered saline, and lysed in 700 μl lysate buffer. The lysate was cleared by centrifugation for 10 min at 10,000×g. For immunoprecipitation, the supernatant was incubated overnight with primary antibody, and Protein A-Sepharose (40 μl, GE Healthcare) was added next morning. Washed immune complexes were fractionated on SDS-PAGE. The gels were either dried and exposed to film or transferred onto polyvinylidene difluoride membranes and immunoblotted as described above.
The IPs were processed for immunoblotting with either anti-phosphoserine or anti-phosphothreonine antibodies followed by secondary antibody and developed with ECL To control for protein loading and transfer, the blots were stripped and reprobed with the immunoprecipitating antibody.
To directly examine the involvement of PKA in CTR action on TJ disassembly, the in vivo incorporation of ^32PO4 in TJ proteins was examined. […] Arrows indicate location of ZO-1 and claudin-3. FIG. 17B depicts the total amount of ^32P-radioactivity of IP bands of ZO-1 and claudin from cells treated with CT (CT) and without treatment (Control, C). […] The results of occludin were inconclusive (data not shown).
Next, the phosphorylated amino acids in these proteins were identified by probing ZO-1 and claudin 3 immunoprecipitates with antisera against phosphoserine, phosphothreonine and phosphotyrosine. […] The blots were probed by antibodies to phosphoserine (Ser), phosphothreonine (Thr), and phosphotyrosine (Tyr). […] There was complete absence of phosphotyrosines in either of these TJ proteins, consistent with the role of PKA in CTR-stimulated phosphorylation of ZO-1 and claudin 3.
As shown above, the interaction of CTR with ZO-1 occurs between CTR-C PDZ-binding motif and PDZ3 domain of ZO-1. […] To examine the role of CTR-C PDZ-binding motif on phosphorylation of TJ proteins, the serine/threonine phosphorylation of ZO-1 and claudin 3 was analyzed in PC-3CTRwt and PC-3CTRΔESS cells. […] The immunoprecipitates were then probed with antibodies to phosphoserine. […] The immunoprecipitates were then probed with antibodies to phosphothreonine. The IPs of ZO-1 and claudin 3 were immunoblotted and probed for phosphoserine and phosphothreonine.

[3] = tested on: PC-3V cells; experiment: Transepithelial electric resistance (TER); conditions: 50 nM CT
Experimental: (§1) Cells were plated on Transwell filters (0.4 μm pore size) and grown to confluency in complete medium (RPMI1640 containing 10% fetal bovine serum, 20 mM HEPES and antibiotics). TER of the cultures (in duplicate wells) was measured at several time intervals with EVOM volt-ohm meter as previously described (Shah et al, 2009). The readings were corrected for blank (TER values from the filter in bathing medium). The integrity and cell density of monolayers were carefully monitored.
(§2) To examine the effect of calcitonin (CT) on tight junctions (TJs), the transepithelial electric resistance (TER) of polarized PC-3 cells expressing either the vector (PC-3V), CTRwt or CTRΔESS was monitored for 8 hours after CT stimulation (FIG. 2A). Polarized PC-3V, PC-3 CTRwt and PC-3 CTR-ΔESS cells were serum-starved for 4 hours, then treated with or without 50 nM CT. TER was measured with EVOM volt-ohm meter, and results expressed as Ωcm^2±SEM (n=6). […] Since PC-3 cells secrete CT, the expression of CTRwt may have activated CT-CTR axis causing almost 40% reduction of TER in PC-3CTRwt cells.

[4] = tested on: PC-3CTRΔESS cells; experiment: Transepithelial electric resistance (TER)
Experimental: as §1, §2

calcitonin [CT]
CTR-ZO-1 interactions (PLA dots) [1]: strong interaction
32P incorporation in immunoprecipitated ZO-1 and claudin 3 ([2]; CT 50 nM): ten-fold increase
incorporation of 32PO4 in ZO-1 and claudin 3 (autoradiogram) ([2]; CT 50 nM, 10 min): remarkable increase
serine/threonine phosphorylation of ZO-1 and claudin 3 ([2]; CT 50 nM, PC-3CTRwt cells): stimulated phosphorylation of serines and threonines in ZO-1 and only threonines in claudin-3; also recorded: detectable increase
phosphorylation of ZO-1 and claudin 3 ([2]; CT, PC-3CTRΔESS cells): did not induce phosphorylation
TER [3]: did not alter it
TER ([4]; 50 nM CT): did not affect TER
TER at multiple CT concentrations ([4]; all CT concentrations): did not show any changes
